Values of other authors in patent US20080038364A1, “Methods of processing body parts for surgery” (priority 2006, published 2008).
Like-named read-outs stand apart in the source and are kept apart here.

Assays:
[1] = test system: bacteria, viruses and other microorganisms; conditions: compared with chlorine
[2] = test system: virus organisms
[3] = test system: Giardia

In the case of `O=[O+][O-]` [ozone], the “disinfectant power relative to chlorine” value [1] is listed as 10 times, the “CT for Virus Inactivation” value ([2]; 2.0 log inactivation, 5 °C) is listed as 0.6 CT units and the “CT for Virus Inactivation” value ([2]; 2.0 log inactivation, 10 °C) is listed as 0.5 CT units. The “CT for Virus Inactivation” value ([2]; 2.0 log inactivation, 15 °C) was 0.3 CT units, the “CT for Virus Inactivation” value ([2]; 2.0 log inactivation, 20 °C) was 0.25 CT units and the “CT for Virus Inactivation” value ([2]; 2.0 log inactivation, 25 °C) was 0.15 CT units. The “CT for Virus Inactivation” value ([2]; 3.0 log inactivation, 5 °C) was 0.9 CT units, the “CT for Virus Inactivation” value ([2]; 3.0 log inactivation, 10 °C) was 0.8 CT units and the “CT for Virus Inactivation” value ([2]; 3.0 log inactivation, 15 °C) was 0.5 CT units. For the same compound, the “CT for Virus Inactivation” value ([2]; 3.0 log inactivation, 20 °C) was 0.4 CT units, the “CT for Virus Inactivation” value ([2]; 3.0 log inactivation, 25 °C) was 0.25 CT units and the “CT for Virus Inactivation” value ([2]; 4.0 log inactivation, 5 °C) was 1.2 CT units. For the same compound, the “CT for Virus Inactivation” value ([2]; 4.0 log inactivation, 10 °C) was 1.0 CT units, the “CT for Virus Inactivation” value ([2]; 4.0 log inactivation, 15 °C) was 0.6 CT units and the “CT for Virus Inactivation” value ([2]; 4.0 log inactivation, 20 °C) was 0.5 CT units. The “CT for Virus Inactivation” value ([2]; 4.0 log inactivation, 25 °C) was 0.3 CT units, the “half-life of ozone gas breaking down to oxygen” value was 20 min and the “CT for Giardia Inactivation” value ([3]; 0.5 log inactivation, 5 °C) was 0.32 CT units. The “CT for Giardia Inactivation” value ([3]; 0.5 log inactivation, 10 °C) was 0.23 CT units, the “CT for Giardia Inactivation” value ([3]; 0.5 log inactivation, 15 °C) was 0.16 CT units and the “CT for Giardia Inactivation” value ([3]; 0.5 log inactivation, 20 °C) was 0.12 CT units. The “CT for Giardia Inactivation” value ([3]; 0.5 log inactivation, 25 °C) was 0.08 CT units, the “CT for Giardia Inactivation” value ([3]; 1.0 log inactivation, 5 °C) was 0.63 CT units and the “CT for Giardia Inactivation” value ([3]; 1.0 log inactivation, 10 °C) was 0.48 CT units. The “CT for Giardia Inactivation” value ([3]; 1.0 log inactivation, 15 °C) was 0.32 CT units, the “CT for Giardia Inactivation” value ([3]; 1.0 log inactivation, 20 °C) was 0.24 CT units and the “CT for Giardia Inactivation” value ([3]; 1.0 log inactivation, 25 °C) was 0.16 CT units. For the same compound, the “CT for Giardia Inactivation” value ([3]; 1.5 log inactivation, 5 °C) was 0.95 CT units, the “CT for Giardia Inactivation” value ([3]; 1.5 log inactivation, 10 °C) was 0.72 CT units and the “CT for Giardia Inactivation” value ([3]; 1.5 log inactivation, 15 °C) was 0.48 CT units. For the same compound, the “CT for Giardia Inactivation” value ([3]; 1.5 log inactivation, 20 °C) was 0.36 CT units, the “CT for Giardia Inactivation” value ([3]; 1.5 log inactivation, 25 °C) was 0.24 CT units and the “CT for Giardia Inactivation” value ([3]; 2.0 log inactivation, 5 °C) was 1.3 CT units. For the same compound, the “CT for Giardia Inactivation” value ([3]; 2.0 log inactivation, 10 °C) was 0.95 CT units, the “CT for Giardia Inactivation” value ([3]; 2.0 log inactivation, 15 °C) was 0.63 CT units and the “CT for Giardia Inactivation” value ([3]; 2.0 log inactivation, 20 °C) was 0.48 CT units. For the same compound, the “CT for Giardia Inactivation” value ([3]; 2.0 log inactivation, 25 °C) was 0.32 CT units, the “CT for Giardia Inactivation” value ([3]; 2.5 log inactivation, 5 °C) was 1.6 CT units and the “CT for Giardia Inactivation” value ([3]; 2.5 log inactivation, 10 °C) was 1.2 CT units. For the same compound, the “CT for Giardia Inactivation” value ([3]; 2.5 log inactivation, 15 °C) was 0.79 CT units, the “CT for Giardia Inactivation” value ([3]; 2.5 log inactivation, 20 °C) was 0.60 CT units and the “CT for Giardia Inactivation” value ([3]; 2.5 log inactivation, 25 °C) was 0.40 CT units. The “CT for Giardia Inactivation” value ([3]; 3.0 log inactivation, 5 °C) was 1.9 CT units, the “CT for Giardia Inactivation” value ([3]; 3.0 log inactivation, 10 °C) was 1.4 CT units and the “CT for Giardia Inactivation” value ([3]; 3.0 log inactivation, 15 °C) was 0.95 CT units. The “CT for Giardia Inactivation” value ([3]; 3.0 log inactivation, 20 °C) was 0.72 CT units and the “CT for Giardia Inactivation” value ([3]; 3.0 log inactivation, 25 °C) was 0.48 CT units.
